According to patent US20100267561A1, “HERBICIDAL PYRIDAZINONE DERIVATIVES” (priority 2007, published 2010):
Like-named read-outs stand apart in the source and are kept apart here.

Tests used:
Assay type in all cases: in vivo
[1] = test system: green foxtail (Setaria viridis); test: Test B pre-/postemergence plant response; settings: for pest or weed control at 31 g/ha: 31 g ai/ha; for pest or weed control at 62 g/ha: 62 g ai/ha, 100 complete control
From the text: (§1) Seeds of plant species selected from blackgrass (Alopecurus myosuroides), downy bromegrass (Bromus tectorum), green foxtail (Setaria viridis), Italian ryegrass (Lolium multiflorum), wheat (Triticum aestivum), wild oat (Avena fatua), catchweed bedstraw (Galium aparine), bermudagrass (Cynodon dactylon), surinam grass (Brachiaria decumbens), cocklebur (Xanthium strumarium), corn (Zea mays), large crabgrass (Digitaria sanguinalis), woolly cupgrass (Eriochloa villosa), giant foxtail (Setaria faberii), goosegrass (Eleusine indica), johnsongrass (Sorghum halepense), kochia (Kochia scoparia), lambsquarters (Chenopodium album), morningglory (Ipomoea coccinea), eastern black (E.B.) nightshade (Solanum ptycanthum), yellow nutsedge (Cyperus esculentus), pigweed (Amaranthus retroflexus), common ragweed (Ambrosia elation), Russian thistle (Salsola iberica), soybean (Glycine max), common (oilseed) sunflower (Helianthus annuus), and velvetleaf (Abutilon theophrasti) were planted and treated preemergence with test chemicals formulated in a non-phytotoxic solvent mixture which included a surfactant.
(§2) At the same time, plants selected from these crop and weed species and also winter barley (Hordeum vulgare), canarygrass (Phalaris minor), chickweed (Stellaria media) and windgrass (Apera spica-venti) were treated with postemergence applications of some of the test chemicals formulated in the same manner. Plants ranged in height from 2 to 18 cm (1- to 4-leaf stage) for postemergence treatments.
(§3) Plant species in the flooded paddy test consisted of rice (Oryza sativa), umbrella sedge (Cyperus difformis), ducksalad (Heteranthera limosa) and barnyardgrass (Echinochloa crus-galli) grown to the 2-leaf stage for testing. At time of treatment, test pots were flooded to 3 cm above the soil surface, treated by application of test compounds directly to the paddy water, and then maintained at that water depth for the duration of the test. Treated plants and controls were maintained in a greenhouse for 13 to 15 days, after which time all species were compared to controls and visually evaluated. Plant response ratings, summarized in Table B, are based on a scale of 0 to 100 where 0 is no effect and 100 is complete control. A dash (-) response means no test result.

[2] = test system: johnsongrass (Sorghum halepense); test: Test B pre-/postemergence plant response; settings: for pest or weed control at 31 g/ha / pest or weed control at 62 g/ha: Sorghum halepense, read-out: Plant response rating, Johnsongrass; for pest or weed control at 31 g/ha: 31 g ai/ha; for pest or weed control at 62 g/ha: 62 g ai/ha, 100 complete control
From the text: as §1, §2, §3

[3] = test system: wheat (Triticum aestivum); test: Test B pre-/postemergence plant response; settings: for plant injury at 31 g/ha / plant injury at 62 g/ha: Triticum aestivum, read-out: Plant response rating, Wheat; for plant injury at 31 g/ha: 31 g ai/ha; for plant injury at 62 g/ha: 62 g ai/ha, 100 complete control
From the text: as §1, §2, §3

[4] = test system: corn (Zea mays); test: Test A pre-/postemergence plant response; settings: Zea mays, 240 h; for Corn plant response rating (crop injury, 0 = no effect, 100 = complete kill) at 31 g/ha: 31 g ai/ha; for Corn plant response rating (crop injury, 0 = no effect, 100 = complete kill) at 125 g/ha: 125 g ai/ha
Summary of the method: (§4)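 Soil: loam blended with sand. Formulation: non-phytotoxic solvent mixture plus surfactant, applied as preemergence directed soil spray and as postemergence spray. Scoring: visual, 0 no effect to 100 complete control, roughly 10 days post-treatment in greenhouse.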

[5] = test system: barnyardgrass (Echinochloa crus-galli); test: Test A pre-/postemergence plant response; settings: Echinochloa crus-galli, 240 h, read-out: Plant response rating, Barnyardgrass; for pest or weed control at 31 g/ha: 31 g ai/ha; for pest or weed control at 125 g/ha: 125 g ai/ha
Summary of the method: as §4

[6] = test system: large crabgrass (Digitaria sanguinalis); test: Test A pre-/postemergence plant response; settings: Digitaria sanguinalis, 240 h, read-out: Plant response rating, Crabgrass, Large; for pest or weed control at 31 g/ha: 31 g ai/ha; for pest or weed control at 125 g/ha: 125 g ai/ha
Summary of the method: as §4

[7] = test system: wheat (Triticum aestivum); test: Test A pre-/postemergence plant response; settings: Triticum aestivum, 240 h, read-out: Plant response rating, Wheat; for plant injury at 31 g/ha: 31 g ai/ha; for plant injury at 125 g/ha: 125 g ai/ha
Summary of the method: as §4

[8] = test system: giant foxtail (Setaria faberi); test: Test A pre-/postemergence plant response; settings: Setaria faberi, 240 h, read-out: Plant response rating, Foxtail, Giant; for pest or weed control at 31 g/ha: 31 g ai/ha; for pest or weed control at 125 g/ha: 125 g ai/ha
Summary of the method: as §4

[9] = test system: pigweed (Amaranthus retroflexus); test: Test A pre-/postemergence plant response; settings: Amaranthus retroflexus, 240 h, read-out: Plant response rating, Pigweed; for pest or weed control at 31 g/ha: 31 g ai/ha; for pest or weed control at 125 g/ha: 125 g ai/ha
Summary of the method: as §4

[10] = 8 g ai/ha, postemergence, 0-100 scale
[11] = Preemergence, 8 g ai/ha, scale 0 to 100 (0 no effect, 100 complete control)
[12] = Preemergence, 16 g ai/ha, scale 0 to 100
[13] = 16 g ai/ha, postemergence, 0-100 scale
[14] = post-emergence, Postemergence, scale 0 to 100
[15] = post-emergence, Postemergence, scale 0 to 100, 0 no effect
[16] = pre-emergence, Preemergence, scale 0 to 100 (0 no effect, 100 complete control)
[17] = pre-emergence, Preemergence, 0 to 100 scale, 0 no effect
[18] = post-emergence, Postemergence, 0 to 100 scale (0 no effect, 100 complete control)
[19] = post-emergence, Postemergence, 0 to 100 scale, 0 no effect, 100 complete control
[20] = pre-emergence, Preemergence, 0 to 100 scale, 0 is no effect, 100 is complete control
[21] = pre-emergence, Preemergence, 0 to 100 scale (0 no effect, 100 complete control)

## Cc1cc(-c2ccc(Br)cc2)nn1-c1c(OC(=O)C2CC2)cnn(C(=O)C2CC2)c1=O [Compound 80, 5-[3-(4-bromophenyl)-5-methyl-1H-pyrazol-1-yl]-1-(cyclopropylcarbonyl)-1,6-dihydro-6-oxo-4-pyridazinyl cyclopropanecarboxylate]
[1]; [10]
  Foxtail, Green plant response rating: 50
[1]; [11]
  Foxtail, Green plant response rating: 0
[1]; [12]
  Foxtail, Green plant response rating: 98
[1]; Setaria viridis, post-emergence, Postemergence, 16 g ai/ha, scale 0 to 100, read-out: Plant response rating, Foxtail, Green
  pest or weed control at 16 g/ha: 60%
[1]; Setaria viridis, post-emergence, Postemergence, scale 0 to 100, read-out: Plant response rating, Foxtail, Green
  pest or weed control at 31 g/ha: 100%
[1]; Setaria viridis, post-emergence, Postemergence, scale 0 to 100, 0 no effect, read-out: Plant response rating, Foxtail, Green
  pest or weed control at 62 g/ha: 100%
[1]; Setaria viridis, pre-emergence, Preemergence, scale 0 to 100 (0 no effect, 100 complete control), read-out: Plant response rating, Foxtail, Green
  pest or weed control at 31 g/ha: 100%
[1]; Setaria viridis, pre-emergence, Preemergence, 0 to 100 scale, 0 no effect, read-out: Plant response rating, Foxtail, Green
  pest or weed control at 62 g/ha: 100%
[2]; [10]
  Johnsongrass plant response rating: 75
[2]; [13]
  Johnsongrass plant response rating: 90
[2]; [11]
  Johnsongrass plant response rating: 60
[2]; [12]
  Johnsongrass plant response rating: 65
[2]; [14]
  pest or weed control at 31 g/ha: 95%
[2]; [15]
  pest or weed control at 62 g/ha: 100%
[2]; [16]
  pest or weed control at 31 g/ha: 80%
[2]; [17]
  pest or weed control at 62 g/ha: 100%
[3]; [10]
  Wheat plant response rating: 35
[3]; [13]
  Wheat plant response rating: 85
[3]; [11]
  Wheat plant response rating: 0
[3]; [12]
  Wheat plant response rating: 20
[3]; [14]
  plant injury at 31 g/ha: 95%
[3]; [15]
  plant injury at 62 g/ha: 98%
[3]; [16]
  plant injury at 31 g/ha: 60%
[3]; [17]
  plant injury at 62 g/ha: 95%
[4]; [18]
  Corn plant response rating (crop injury, 0 = no effect, 100 = complete kill) at 31 g/ha: 60%
[4]; [19]
  Corn plant response rating (crop injury, 0 = no effect, 100 = complete kill) at 125 g/ha: 100%
[4]; [20]
  Corn plant response rating (crop injury, 0 = no effect, 100 = complete kill) at 31 g/ha: 40%
[4]; [21]
  Corn plant response rating (crop injury, 0 = no effect, 100 = complete kill) at 125 g/ha: 60%
[5]; [18]
  pest or weed control at 31 g/ha: 100%
[5]; [19]
  pest or weed control at 125 g/ha: 100%
[5]; [20]
  pest or weed control at 31 g/ha: 0%
[5]; [21]
  pest or weed control at 125 g/ha: 100%
[6]; [18]
  pest or weed control at 31 g/ha: 60%
[6]; [19]
  pest or weed control at 125 g/ha: 100%
[6]; [20]
  pest or weed control at 31 g/ha: 10%
[6]; [21]
  pest or weed control at 125 g/ha: 100%
[7]; [18]
  plant injury at 31 g/ha: 30%
[7]; [19]
  plant injury at 125 g/ha: 70%
[7]; [20]
  plant injury at 31 g/ha: 20%
[7]; [21]
  plant injury at 125 g/ha: 80%
[8]; [18]
  pest or weed control at 31 g/ha: 90%
[8]; [19]
  pest or weed control at 125 g/ha: 100%
[8]; [20]
  pest or weed control at 31 g/ha: 80%
[8]; [21]
  pest or weed control at 125 g/ha: 100%
[9]; [18]
  pest or weed control at 31 g/ha: 0%
[9]; [19]
  pest or weed control at 125 g/ha: 0%
[9]; [20]
  pest or weed control at 31 g/ha: 0%
[9]; [21]
  pest or weed control at 125 g/ha: 0%
